Measured values: ChEMBL document CHEMBL4483862, “Open-source discovery of chemical leads for next-generation chemoprotective antimalarials” (2018)

Tested on: Plasmodium berghei
Experiment: Luciferase/luciferin-expressing antifolate-resistant parasites were used to infect a culture of HepG2 cells that were pre-incubated with compounds. Infected hepatocytes emit light due to the luciferase reaction. Assay results are presented as the percent inhibition of light emission compared to control. […]
Format: functional
Settings: sporozoite; for IC90: read-out: LUCIFERASE INFECTION ASSAY - IC90
[1] = read-out: LUCIFERASE INFECTION ASSAY - IC50

SMILES	IC90	IC50 [1]	further results
CCN(CC)S(=O)(=O)c1ccc(C)c(NC(=O)CCc2ncc(-c3ccc(C)cc3)o2)c1	8.55 µM	–	IC50 (HEPG2TOX_HILL_SLOPE 2.43, HEPG2TOX_R_SQUARED 0.985, PBLUC_HILL_SLOPE 1.82, PBLUC_R_SQUARED 0.587, read-out: LUCIFERASE INFECTION ASSAY - IC50): 2.56 µM
COc1cc(OC)cc(-c2cc3c(Nc4ccc5c(c4)OCO5)nccc3[nH]2)c1	6.69 µM	–	IC50 (PBLUC_HILL_SLOPE 1.19, PBLUC_R_SQUARED 0.67, read-out: LUCIFERASE INFECTION ASSAY - IC50): 1.06 µM
Cc1ccc2nc(NC(=O)c3ccc(F)c(F)c3)c(C(=O)NCC(C)C)n2c1	> 8.54 µM	–	IC50 (PBLUC_HILL_SLOPE 0.472, PBLUC_R_SQUARED 0.144, read-out: LUCIFERASE INFECTION ASSAY - IC50): > 8.54 µM
CC(C)CN(C(=O)COC(=O)/C=C/c1nc2ccccc2s1)c1c(N)n(Cc2ccccc2)c(=O)[nH]c1=O	3.98 µM	3.46 µM	–
NC(c1ccccc1)c1csc(NC(=O)NC(c2ccccc2)c2ccccc2)n1 (configuration not stated)	> 7.96 µM	> 7.96 µM	–
CCOC(=O)c1cc(-c2ccccc2)sc1NC(=O)CSc1nnc(-c2ccc(C(C)(C)C)cc2)n1-c1ccccc1	> 10 µM	–	IC50 (FFLUC_HILL_SLOPE 0.186, FFLUC_R_SQUARED 0.0278, read-out: LUCIFERASE INFECTION ASSAY - IC50): > 10 µM
CC(C)(C)c1cc(C(c2ccccn2)N2CCCC2)cc(C(C)(C)C)c1O (configuration not stated)	> 10 µM	> 10 µM	–
COc1ccc(-c2cnc3cnc(-c4cccc(N)c4)cn23)cc1	1.68 µM	–	IC50 (FFLUC_HILL_SLOPE 0.419, FFLUC_R_SQUARED 0.0515, PBLUC_HILL_SLOPE 8.9, PBLUC_R_SQUARED 0.87, read-out: LUCIFERASE INFECTION ASSAY - IC50): 1.31 µM
O=C(Nc1nonc1-c1cccs1)c1sc2cc(Cl)ccc2c1Cl	2.76 µM	–	IC50 (FFLUC_HILL_SLOPE 17.9, FFLUC_R_SQUARED 0.511, HEPG2TOX_HILL_SLOPE 2.63, HEPG2TOX_R_SQUARED 0.88, PBLUC_HILL_SLOPE 16.1, PBLUC_R_SQUARED 0.687, read-out: LUCIFERASE INFECTION ASSAY - IC50): 2.41 µM
O=C(Nc1ccc2c(c1)OCO2)C1CCN(Cn2nc3n(c2=O)CCCCC3)CC1	> 10 µM	> 10 µM	–
CCc1nn2c(=O)cc(CSc3ccc(C)cc3)[nH]c2c1-c1ccc(F)cc1	2.98 µM	–	IC50 (FFLUC_HILL_SLOPE 2.56, FFLUC_R_SQUARED 0.75, PBLUC_HILL_SLOPE 10.5, PBLUC_R_SQUARED 0.512, read-out: LUCIFERASE INFECTION ASSAY - IC50): 2.42 µM
CN(CC(=O)Nc1nnc(-c2ccccc2)o1)Cc1ccccc1C(F)(F)F	3.69 µM	–	IC50 (PBLUC_HILL_SLOPE 1.69E+03, PBLUC_R_SQUARED 0.413, read-out: LUCIFERASE INFECTION ASSAY - IC50): 3.69 µM
Oc1ccc(CN2CCN(c3ccccn3)CC2)c2cccnc12	> 10 µM	–	IC50 (HEPG2TOX_HILL_SLOPE 1.46, HEPG2TOX_R_SQUARED 0.941, PBLUC_HILL_SLOPE 3.25, PBLUC_R_SQUARED 0.21, read-out: LUCIFERASE INFECTION ASSAY - IC50): 7.97 µM
COc1ccc(C(=O)N2CCN(C(c3ccc(F)cc3)c3ccc(F)cc3)CC2)cc1S(=O)(=O)NCCN(C)C	> 10 µM	> 10 µM	–
COc1cc(C(=O)N/N=C(\Cc2ncc[nH]2)c2ccccc2)cc(OC)c1OC	> 10 µM	–	IC50 (HEPG2TOX_HILL_SLOPE 12.3, 3.85, HEPG2TOX_R_SQUARED 0.0839, 0.975, PBLUC_HILL_SLOPE 2.96, PBLUC_R_SQUARED 0.327, read-out: LUCIFERASE INFECTION ASSAY - IC50): 5.09 µM
COc1ccccc1-c1cc(C(=O)NCC(C)c2ccccc2)no1 (configuration not stated)	> 10 µM	–	IC50 (PBLUC_HILL_SLOPE 1.24, PBLUC_R_SQUARED 0.652, read-out: LUCIFERASE INFECTION ASSAY - IC50): 3.42 µM
CCOC(=O)c1c(C)[nH]c(C(=O)C(C)OC(=O)CN2C(=O)C3CC=CCC3C2=O)c1C (configuration not stated)	> 10 µM	–	IC50 (HEPG2TOX_HILL_SLOPE 1.33, HEPG2TOX_R_SQUARED 0.914, read-out: LUCIFERASE INFECTION ASSAY - IC50): > 10 µM
COc1ccc(OCCSCc2cc(=O)n3c4c(sc3n2)CCCC4)cc1	> 10 µM	> 10 µM	–
Cc1oc(-c2cccs2)nc1CC(=O)NNC(=O)CC12CC3CC(CC(C3)C1)C2	4.57 µM	–	IC50 (PBLUC_HILL_SLOPE 9.4, PBLUC_R_SQUARED 0.433, read-out: LUCIFERASE INFECTION ASSAY - IC50): 3.62 µM
CC(=O)c1cc2c(N)c(-c3nc(C(C)(C)C)no3)sc2nc1C	3.91 µM	–	IC50 (PBLUC_HILL_SLOPE 13.1, PBLUC_R_SQUARED 0.312, read-out: LUCIFERASE INFECTION ASSAY - IC50): 3.31 µM
Cc1ccc(C)n1-c1nc2cc(C(=O)NC3CC3)ccc2s1	7.33 µM	–	IC50 (PBLUC_HILL_SLOPE 2.39, PBLUC_R_SQUARED 0.619, read-out: LUCIFERASE INFECTION ASSAY - IC50): 2.93 µM

SMILES	IC90	IC50 [1]	further results
CC(/N=c1\ccccn1C(=O)Nc1ccc(Cl)c(Cl)c1)c1ccco1 (configuration not stated)	9.14 µM	6.62 µM	–
Cc1cccc(C(=O)OC(C)C(=O)Nc2sccc2C#N)c1N (configuration not stated)	> 10 µM	–	IC50 (PBLUC_HILL_SLOPE 38.2, PBLUC_R_SQUARED 0.283, read-out: LUCIFERASE INFECTION ASSAY - IC50): 9.97 µM
CSc1ccc(C2=NNC(=NC3CC3)SC2)cc1	> 10 µM	–	IC50 (FFLUC_HILL_SLOPE 0.857, FFLUC_R_SQUARED 0.948, PBLUC_HILL_SLOPE 0.604, PBLUC_R_SQUARED 0.771, read-out: LUCIFERASE INFECTION ASSAY - IC50): 0.467 µM
CO/N=C(/CS(=O)(=O)c1ccc(OC)cc1)c1ccc(Cl)cc1	> 9.33 µM	–	IC50 (HEPG2TOX_HILL_SLOPE 2.67, HEPG2TOX_R_SQUARED 0.896, PBLUC_HILL_SLOPE 4.33, PBLUC_R_SQUARED 0.342, read-out: LUCIFERASE INFECTION ASSAY - IC50): 6.46 µM
Cc1[nH]c(C(=O)N2CCN(CC3CCCCC3)CC2)c(C)c1C(=O)OC(C)C	> 10 µM	> 10 µM	–
Cc1cc(-c2onc(C)c2C(=O)Sc2ccccc2)no1	> 11 µM	–	IC50 (FFLUC_HILL_SLOPE 12.1, FFLUC_R_SQUARED 0.567, PBLUC_HILL_SLOPE 1.05, PBLUC_R_SQUARED 0.41, read-out: LUCIFERASE INFECTION ASSAY - IC50): > 11 µM
CC(C)(C)C(=O)Nc1ccccc1Sc1ccc([N+](=O)[O-])c(Sc2ccccc2NC(=O)C(C)(C)C)n1	> 6.13 µM	> 6.13 µM	–
CC1(C)CC(Nc2ncnc3sc(-c4ccccc4)cc23)CC(C)(C)N1	> 10 µM	–	IC50 (PBLUC_HILL_SLOPE 16.4, PBLUC_R_SQUARED 0.0474, read-out: LUCIFERASE INFECTION ASSAY - IC50): 8.84 µM
Fc1ccc(-c2csc3ncnc(NC4CCN(Cc5ccccc5)C4)c23)cc1 (configuration not stated)	> 10 µM	–	IC50 (PBLUC_HILL_SLOPE 12.7, PBLUC_R_SQUARED 0.103, read-out: LUCIFERASE INFECTION ASSAY - IC50): 9.17 µM
COc1cc(Cl)c(C)cc1-n1c(Sc2ccc([N+](=O)[O-])c(C(F)(F)F)c2)nc2ccccc2c1=O	> 10 µM	–	IC50 (FFLUC_HILL_SLOPE 1.25, FFLUC_R_SQUARED 0.54, HEPG2TOX_HILL_SLOPE 0.668, HEPG2TOX_R_SQUARED 0.6, PBLUC_HILL_SLOPE 3.18, PBLUC_R_SQUARED 0.355, read-out: LUCIFERASE INFECTION ASSAY - IC50): 6.33 µM
Cn1c(NCCOc2cccc3c2OC(C)(C)C3)c(C#N)c(=O)n(C)c1=O	> 10 µM	> 10 µM	–
COc1ccc(-c2cnc(N)c(-c3ccc(O)c(OC)c3)c2)cc1	3.77 µM	–	IC50 (HEPG2TOX_HILL_SLOPE 8.61, HEPG2TOX_R_SQUARED 0.753, PBLUC_HILL_SLOPE 13.4, PBLUC_R_SQUARED 0.628, read-out: LUCIFERASE INFECTION ASSAY - IC50): 3.2 µM
COc1cc(NC(=O)N2CCc3nc(NCc4cccc(Oc5ccccc5)c4)ncc3C2)cc(OC)c1OC	> 6.09 µM	–	IC50 (HEPG2TOX_HILL_SLOPE 6.86, HEPG2TOX_R_SQUARED 0.395, PBLUC_HILL_SLOPE 8.32, PBLUC_R_SQUARED 0.196, read-out: LUCIFERASE INFECTION ASSAY - IC50): 5.31 µM
CC(=O)c1cccc(-c2ccc3ncc(-c4cccc(C(F)(F)F)c4)n3n2)c1	0.407 µM	–	IC50 (HEPG2TOX_HILL_SLOPE 2.43, HEPG2TOX_R_SQUARED 0.95, PBLUC_HILL_SLOPE 15.4, PBLUC_R_SQUARED 0.713, read-out: LUCIFERASE INFECTION ASSAY - IC50): 0.353 µM
CC1C/C(=C/c2ccc(Cl)cc2)C2=NN(C(=O)c3ccc4ncccc4c3)C(c3ccc(Cl)cc3)C2C1 (configuration not stated)	6.04 µM	–	IC50 (FFLUC_HILL_SLOPE 1.77, FFLUC_R_SQUARED 0.609, HEPG2TOX_HILL_SLOPE 4.89, HEPG2TOX_R_SQUARED 0.557, PBLUC_HILL_SLOPE 71.4, PBLUC_R_SQUARED 0.509, read-out: LUCIFERASE INFECTION ASSAY - IC50): 5.86 µM
CCOc1ccc(C2(O)C(C)N3C(=[N+]2c2ccc(OC)cc2)CCc2ccccc23)cc1 (configuration not stated)	> 10 µM	> 10 µM	–
OCc1cccc(-c2ccc3ncc(-c4cccs4)n3n2)c1	4.05 µM	–	IC50 (HEPG2TOX_HILL_SLOPE 1.03, HEPG2TOX_R_SQUARED 0.934, PBLUC_HILL_SLOPE 12.1, PBLUC_R_SQUARED 0.638, read-out: LUCIFERASE INFECTION ASSAY - IC50): 3.38 µM
CSc1nnc(Sc2nc(-c3cccnc3)nc3ccccc23)s1	> 10 µM	> 10 µM	–
COC(=O)c1cc(OC)c(OC)cc1NS(=O)(=O)c1ccc(OC)cc1	> 8.65 µM	3.35 µM	–
CC(C)N(C(C)C)S(=O)(=O)c1ccc(NNC(=O)Nc2ccccc2F)nc1	> 10 µM	–	IC50 (PBLUC_HILL_SLOPE 3.78, PBLUC_R_SQUARED 0.132, read-out: LUCIFERASE INFECTION ASSAY - IC50): 6.19 µM
